Laboratory results from patent publication US6613786B2, “Thiophenyl triazol-3-one derivatives as smooth muscle relaxants” (Bristol-Myers Squibb Company, priority 2001, dated 2003).

tested on: rat bladder strip; assay: in vitro rat bladder strip model: inhibition of 10 μM carbachol induced contraction; conditions: 1 h; test compound at 3 μM, one hour incubation; 10 μM carbachol induced contraction of rat bladder strip; percent inhibition over controls, normalized for vehicle effects
Method: The ability of the compounds of the present invention to relax smooth muscle tissue was assessed by their ability to inhibit carbachol induced contractions in mammalian smooth muscle tissue. More specifically, the compounds of the present invention were screened in an in vitro rat bladder strip model to estimate their inhibitory effects on 10 μM carbachol induced contraction of the rat bladder strip according to the following experimental protocol.
1. Bladder Strip Tissue Preparation
Male rats were sacrificed by decapitation, the bladder removed and cleaned of connective tissue. Strips of bladder were then cut from the bladder body and placed in organ baths, suspended between a fixed hook and a force transducer, containing oxygenated physiological buffer maintained at 37° C.
The bladder strips were primed by stimulating them with 10 μM carbachol to evoke a contraction. The strips were then washed multiple times with fresh physiological buffer and allowed to fully relax. Following a period of recovery, the strips were again challenged with 10 μM carbachol to produce a contraction; this contractile response served as control response. The strips were again washed multiple times and allowed to fully relax (45 minutes). Test compound (3 μM) or vehicle was then added to each organ bath. Following a one hour incubation period, the strips were again stimulated with 10 μM carbachol and the contractile response measured.
The percent inhibition of the carbachol response by the test compounds was calculated by comparing control and post-compound carbachol responses normalized for vehicle effects. The percentage inhibition for each compound at 3 μM concentration is provided below in Table 1.

Row | Structure (SMILES) | inhibition at 3 µM
1 | O=c1[nH]c(-c2scc(Br)c2Br)nn1-c1cc(Cl)ccc1O [Example 12, 2-(5-Chloro-2-hydroxyphenyl)-5-(3,4-dibromothiophen-2-yl)-2,4-dihydro-[1,2,4]triazol-3-one] | 20 to 35%
2 | O=c1[nH]c(-c2ccc(Br)s2)nn1-c1cc(Cl)c(Br)cc1O [Example 25, 2-(4-Bromo-5-chloro-2-hydroxyphenyl)-5-(5-bromothiophen-2-yl)-2,4-dihydro-[1,2,4]triazol-3-one] | 20 to 35%
3 | CC=Cc1cc(Cl)cc(-n2nc(-c3ccc(Br)s3)[nH]c2=O)c1O [Example 29, 5-(5-Bromothiophen-2-yl)-2-(5-chloro-2-hydroxy-3-(prop-1-en-1-yl)phenyl)-2,4-dihydro-[1,2,4]triazol-3-one] | 20 to 35%
4 | O=c1[nH]c(-c2ccc(Br)s2)nn1-c1cc(Cl)cc(Cl)c1O [Example 23, 5-(5-Bromothiophen-2-yl)-2-(3,5-dichloro-2-hydroxyphenyl)-2,4-dihydro-[1,2,4]triazol-3-one] | 20 to 35%
5 | C=CCc1cc(Cl)cc(-n2nc(-c3ccc(Br)s3)[nH]c2=O)c1O [Example 20, 2-(3-Allyl-5-chloro-2-hydroxyphenyl)-5-(5-bromothiophen-2-yl)-2,4-dihydro-[1,2,4]triazol-3-one] | 20 to 35%
6 | O=c1[nH]c(-c2cc(Br)c(Br)s2)nn1-c1cc(Cl)ccc1O [Example 9, 2-(5-Chloro-2-hydroxyphenyl)-5-(4,5-dibromothiophen-2-yl)-2,4-dihydro-[1,2,4]triazol-3-one] | 5 to 20%
7 | O=c1[nH]c(-c2cc(Br)c(Cl)s2)nn1-c1cc(Cl)ccc1O [Example 11, 5-(4-Bromo-5-chlorothiophen-2-yl)-2-(5-chloro-2-hydroxyphenyl)-2,4-dihydro-[1,2,4]triazol-3-one] | 20 to 35%
8 | CCCc1cc(Cl)cc(-n2nc(-c3cccs3)[nH]c2=O)c1O [Example 30, 2-(5-Chloro-2-hydroxy-3-propylphenyl)-5-(thiophen-2-yl)-2,4-dihydro-[1,2,4]triazol-3-one] | 20 to 35%
9 | O=c1[nH]c(-c2sccc2I)nn1-c1cc(Cl)ccc1O [Example 8, 2-(5-Chloro-2-hydroxyphenyl)-5-(3-iodothiophen-2-yl)-2,4-dihydro-[1,2,4]triazol-3-one] | 20 to 35%
10 | O=c1[nH]c(-c2cc(Br)sc2Br)nn1-c1cc(Cl)ccc1O [Example 18, 2-(5-Chloro-2-hydroxyphenyl)-5-(2,5-dibromothiophen-3-yl)-2,4-dihydro-[1,2,4]triazol-3-one] | 20 to 35%
11 | O=c1[nH]c(-c2ccc(Br)s2)nn1-c1cc(C(F)(F)F)ccc1O [Example 26, 5-(5-Bromothiophen-2-yl)-2-(2-hydroxy-5-trifluoromethylphenyl)-2,4-dihydro-[1,2,4]triazol-3-one] | 35 to 50%
12 | Cc1sc(-c2nn(-c3cc(Cl)ccc3O)c(=O)[nH]2)cc1Br [Example 17, 5-(4-Bromo-5-methylthiophen-2-yl)-2-(5-chloro-2-hydroxyphenyl)-2,4-dihydro-[1,2,4]triazol-3-one] | 20 to 35%
13 | O=c1[nH]c(-c2sc(Cl)c(Cl)c2Cl)nn1-c1cc(Cl)ccc1O [Example 16, 2-(5-Chloro-2-hydroxyphenyl)-5-(3,4,5-trichlorothiophen-2-yl)-2,4-dihydro-[1,2,4]triazol-3-one] | 20 to 35%
14 | O=c1[nH]c(-c2ccc(Cl)s2)nn1-c1cc(Cl)ccc1O [Example 2, 2-(5-Chloro-2-hydroxyphenyl)-5-(5-chlorothiophen-2-yl)-2,4-dihydro-[1,2,4]triazol-3-one] | 35 to 50%
15 | O=c1[nH]c(-c2ccc(Br)s2)nn1-c1cc(Cl)cc(Br)c1O [Example 21, 2-(3-Bromo-5-chloro-2-hydroxyphenyl)-5-(5-bromothiophen-2-yl)-2,4-dihydro-[1,2,4]triazol-3-one] | 20 to 35%
16 | O=c1[nH]c(-c2cc(Cl)sc2Cl)nn1-c1cc(Cl)ccc1O [Example 19, 2-(5-Chloro-2-hydroxyphenyl)-5-(2,5-dichlorothiophen-3-yl)-2,4-dihydro-[1,2,4]triazol-3-one] | 35 to 50%

Row | Structure (SMILES) | inhibition at 3 µM
17 | O=c1[nH]c(-c2ccc(Cl)s2)nn1-c1cc(Br)ccc1O [Example 31, 2-(5-Bromo-2-hydroxyphenyl)-5-(5-chlorothiophen-2-yl)-2,4-dihydro-[1,2,4]triazol-3-one] | 20 to 35%
18 | O=c1[nH]c(-c2ccc(Br)s2)nn1-c1cc(Cl)ccc1O [Example 1, 5-(5-Bromothiophen-2-yl)-2-(5-chloro-2-hydroxyphenyl)-2,4-dihydro-[1,2,4]triazol-3-one] | 35 to 50%
19 | Cc1cc(O)c(-n2nc(-c3ccc(Br)s3)[nH]c2=O)cc1Cl [Example 24, 5-(5-Bromothiophen-2-yl)-2-(5-chloro-2-hydroxy-4-methylphenyl)-2,4-dihydro-[1,2,4]triazol-3-one] | 20 to 35%
20 | O=c1[nH]c(-c2scc(Cl)c2Cl)nn1-c1cc(Cl)ccc1O [Example 13, 2-(5-Chloro-2-hydroxyphenyl)-5-(3,4-dichlorothiophen-2-yl)-2,4-dihydro-[1,2,4]triazol-3-one] | 35 to 50%
21 | O=c1[nH]c(-c2sc(Br)cc2Br)nn1-c1cc(Cl)ccc1O [Example 14, 2-(5-Chloro-2-hydroxyphenyl)-5-(3,5-dibromothiophen-2-yl)-2,4-dihydro-[1,2,4]triazol-3-one] | 35 to 50%
22 | O=c1[nH]c(-c2cc(Br)cs2)nn1-c1cc(Cl)ccc1O [Example 4, 5-(4-Bromothiophen-2-yl)-2-(5-chloro-2-hydroxyphenyl)-2,4-dihydro-[1,2,4]triazol-3-one] | 35 to 50%
23 | O=c1[nH]c(-c2sc(Br)c(Br)c2Br)nn1-c1cc(Cl)ccc1O [Example 15, 2-(5-Chloro-2-hydroxyphenyl)-5-(3,4,5-tribromothiophen-2-yl)-2,4-dihydro-[1,2,4]triazol-3-one] | 5 to 20%
24 | O=c1[nH]c(-c2ccc(I)s2)nn1-c1cc(Cl)ccc1O [Example 3, 2-(5-Chloro-2-hydroxyphenyl)-5-(5-iodothiophen-2-yl)-2,4-dihydro-[1,2,4]triazol-3-one] | 35 to 50%
25 | Cc1cc(Cl)cc(-n2nc(-c3ccc(Br)s3)[nH]c2=O)c1O [Example 22, 5-(5-Bromothiophen-2-yl)-2-(5-chloro-2-hydroxy-3-methylphenyl)-2,4-dihydro-[1,2,4]triazol-3-one] | 20 to 35%
26 | O=c1[nH]c(-c2sccc2Cl)nn1-c1cc(Cl)ccc1O [Example 7, 2-(5-Chloro-2-hydroxyphenyl)-5-(3-chlorothiophen-2-yl)-2,4-dihydro-[1,2,4]triazol-3-one] | 35 to 50%
27 | O=c1[nH]c(-c2ccc(Br)s2)nn1-c1cc(Br)ccc1O [Example 27, 2-(5-Bromo-2-hydroxyphenyl)-5-(5-bromothiophen-2-yl)-2,4-dihydro-[1,2,4]triazol-3-one] | 35 to 50%
28 | O=c1[nH]c(-c2cc(Cl)c(Cl)s2)nn1-c1cc(Cl)ccc1O [Example 10, 2-(5-Chloro-2-hydroxyphenyl)-5-(4,5-dichlorothiophen-2-yl)-2,4-dihydro-[1,2,4]triazol-3-one] | 20 to 35%
29 | O=c1[nH]c(-c2cc(Cl)cs2)nn1-c1cc(Cl)ccc1O [Example 5, 5-(4-Chlorothiophen-2-yl)-2-(5-chloro-2-hydroxyphenyl)-2,4-dihydro-[1,2,4]triazol-3-one] | 35 to 50%
30 | O=c1[nH]c(-c2sccc2Br)nn1-c1cc(Cl)ccc1O [Example 6, 5-(3-Bromothiophen-2-yl)-2-(5-chloro-2-hydroxyphenyl)-2,4-dihydro-[1,2,4]triazol-3-one] | 35 to 50%
31 | O=c1[nH]c(-c2ccc(Cl)s2)nn1-c1cc(F)ccc1O [Example 32, 5-(5-Chlorothiophen-2-yl)-2-(5-fluoro-2-hydroxyphenyl)-2,4-dihydro-[1,2,4]triazol-3-one] | 35 to 50%
32 | O=c1[nH]c(-c2ccc(Br)s2)nn1-c1cc(F)ccc1O [Example 28, 5-(5-Bromothiophen-2-yl)-2-(5-fluoro-2-hydroxyphenyl)-2,4-dihydro-[1,2,4]triazol-3-one] | 20 to 35%
